The test concerns the target T1, HCV RdRp NS5B d21BK (NS5B from the BK strain, genotype 1b) (Hepatitis C virus genotype 1b, UniProt P26663).
T1 construct: NS5B from the BK strain (genotype 1b) is expressed in E coli as a protein in which the 21 C-terminal amino acids are replaced; made in house; host or cells: E. coli
Briefly: Hepatitis C polymerase inhibition assay, radioactive nucleotide incorporation with filter capture. It counts as biochemical. From the text: The ability of the compounds of formula (I) to inhibit Hepatitis C Polymerase was established by the following experimental procedure.
NS5B from the BK strain (genotype 1b) is expressed in E coli as a protein in which the 21 C-terminal amino acids are replaced with a short linker and a hexahistidine tag ([…]). The purified protein is mixed with radioactive nucleotides and allowed to replicate a heteropolymeric RNA substrate, primed by an endogenous short hairpin, resulting in an approximately 760 nt product. The radioactive product is captured on a filter and quantitated after removal of the unincorporated nucleotides.
(1) Compounds 10 μl at 10 μg/ml in 15% dimethylsulfoxide (DMSO)
When starting from 100 μg/ml compound stock in 1% DMSO, 5 μl 30% DMSO is dispensed per well. Next, 5 μl compound (100 μg/ml) is dispensed per well.
When starting from 50 μg/ml compound stock in 15% DMSO, 10 μl compound is added per well.
20 μl enzyme mix is added into each well of the assay plate. The compound and enzyme are incubated at room temperature for 15 minutes.
(3) Template mix (prepared in advance)
A tube of RNA (5 μg/tube stored in 75% ethanol and 0.3 M sodium acetate) is microcentrifuged for 20 minutes at 4° C. (one tube supplies 1-1.5 plates). Ethanol is removed from the tube by gently inverting the tube. The RNA is vacuum dried and re-suspended in 1 ml of DEPC water in a tightly capped tube. To dissolve RNA, the RNA solution is incubated on ice for ˜60 minutes and gently vortexed. It is spun briefly to ensure all RNA solution at the bottom of the tube before opening cap. The RNA solution is then gently transferred into a 5 ml or larger tube. Another 3 ml of DEPC water is added to obtain a total of 4 ml of volume.
The following volumes of reagents are added:
20 μl template mix per reaction is added (i.e. 20 ng of pOF per reaction or ˜3 nM)
(4) The reaction is incubated at room temperature (22-25° C.) for 2 hours.
(5) The reaction is quenched by adding 50 μl of 170 mM EDTA.
Final concentration of EDTA is 85 mM.
(6) The filters of Millipore multiscreen assay plate is pre-wet by adding 200 μl of 0.5 M sodium phosphate buffer, pH 7.0 into each well. This stands at room temperature for 2-3 minutes.
(7) The multiscreen filter plate is placed onto a Millipore Manifold under vacuum to allow buffer to flow through. After the vacuum is turned off, 80 μl of the reaction product is transferred into each well of the filter plate. This stands for 2-3 minutes prior to turning on the vacuum again to filter the reaction product.
(8) The vacuum is then removed. 200 μl of 0.5 M sodium phosphate buffer is added, pH 7.0, into each well. The vacuum is then turned on.
Step (8) is repeated three more times.
(9) Next the polypropylene bottom is removed, and the filter is spot dried with a paper towel. The filter plate is air-dried on a bench for 1 hour before adding 40 μl Super Mix scintillant. The top of the plate is sealed with a tape and the plate is placed into a Packard carrier or micro-beta carrier.
(10) The plate is counted using a Packard Topcount or micro-beta counter. Count (for example using Program 10) for ^33P in Top count or ^33P program in micro-beta.
The percent inhibition is calculated after background subtraction as a percent reduction of activity relative to the positive control (average value of the plate excluding the negative controls). For the primary screen hits were chosen as showing >75% inhibition.
See, Ferrari et al. 1999. J. Virology 73:1649-1654: “Characterization of soluble Hepatitis C virus RNA-dependent RNA polymerase expressed in E. coli and Takamizawa et al 1991” and J. Virology 65:1105-1113: “Structure and characterization of Hepatitis C virus genome isolated from human carriers,” both reference are hereby incorporated by reference.
T1 sequence (P26663 2420-2989): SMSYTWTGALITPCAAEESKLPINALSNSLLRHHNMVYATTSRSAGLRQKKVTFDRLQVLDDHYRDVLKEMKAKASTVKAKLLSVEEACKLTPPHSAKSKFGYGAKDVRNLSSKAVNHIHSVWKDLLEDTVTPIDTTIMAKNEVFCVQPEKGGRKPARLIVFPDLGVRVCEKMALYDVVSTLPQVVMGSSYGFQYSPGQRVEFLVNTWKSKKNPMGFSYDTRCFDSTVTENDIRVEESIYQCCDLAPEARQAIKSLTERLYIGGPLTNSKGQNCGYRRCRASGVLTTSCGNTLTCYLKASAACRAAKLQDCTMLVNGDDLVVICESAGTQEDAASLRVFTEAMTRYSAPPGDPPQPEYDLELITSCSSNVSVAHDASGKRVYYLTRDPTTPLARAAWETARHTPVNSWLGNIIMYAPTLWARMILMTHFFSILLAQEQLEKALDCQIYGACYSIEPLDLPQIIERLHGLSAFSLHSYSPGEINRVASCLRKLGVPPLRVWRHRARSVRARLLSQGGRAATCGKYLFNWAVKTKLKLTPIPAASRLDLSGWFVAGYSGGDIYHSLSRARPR
As a reminder, the IC50 is the midpoint of a concentration-inhibition curve. For the compound `CCCC1(CC(=O)O)CCCc2c1[nH]c1c(F)ccc(C#N)c21` (centres unmarked) [Example 32, (5-Cyano-8-fluoro-1-propyl-2,3,4,9-tetrahydro-1H-carbazol-1-yl)-acetic acid], the IC50 amounted to 2 µM. For `CCCC1(CC(=O)O)CCCc2c1[nH]c1c(C(N)=O)ccc(C#N)c21` (centres unmarked) [Example 33, (8-Carbamoyl-5-cyano-1-propyl-2,3,4,9-tetrahydro-1H-carbazol-1-yl)-acetic acid], the IC50 was 5.9 µM.

As to `C=CCC1(CC(=O)O)CCCc2c1[nH]c1c(C#N)ccc(C#N)c21` (centres unmarked) [Example 34, (1-Allyl-5,8-dicyano-2,3,4,9-tetrahydro-1H-carbazol-1-yl)-acetic acid], the concentration for half-maximal inhibition (IC50) came out at 3.4 µM. For `CCCC1(CC(=O)O)CCCc2c1[nH]c1c(C#N)ccc(C#N)c21` (centres unmarked) [Example 35, (5,8-Dicyano-1-propyl-2,3,4,9-tetrahydro-1H-carbazol-1-yl)-acetic acid] the value was 3.4 µM; for `CCCC1(CC(=O)O)CCCc2c1[nH]c1cccc(C#N)c21` (centres unmarked) [Example 36, (5-Cyano-1-propyl-2,3,4,9-tetrahydro-1H-carbazol-1-yl)-acetic acid], 9.5 µM.

These data come from patent US7250441B2, “Carbazole and cyclopentaindole derivatives to treat infection with Hepatitis C virus” (priority 2004, dated 2007).
